Source: PMC6437697 (Journal of Medicinal Chemistry, 2019)

Assays:
Experiment in all cases: KINOMEscan
Assay type in all cases: binding
Conditions in all cases: read-out: % control activity remaining
[1] = target: T1, NEK7 (Homo sapiens, UniProt Q8TDX7)
T1 construct: purchased Eurofins DiscoverX KINOMEscan

[2] = target: T2, FGFR1 (Homo sapiens, UniProt P11362)
T2 construct: purchased Eurofins DiscoverX KINOMEscan

[3] = target: T3, GSK3B (Homo sapiens, UniProt P49841)
T3 construct: purchased Eurofins DiscoverX KINOMEscan
T3 sequence (P49841 whole entry): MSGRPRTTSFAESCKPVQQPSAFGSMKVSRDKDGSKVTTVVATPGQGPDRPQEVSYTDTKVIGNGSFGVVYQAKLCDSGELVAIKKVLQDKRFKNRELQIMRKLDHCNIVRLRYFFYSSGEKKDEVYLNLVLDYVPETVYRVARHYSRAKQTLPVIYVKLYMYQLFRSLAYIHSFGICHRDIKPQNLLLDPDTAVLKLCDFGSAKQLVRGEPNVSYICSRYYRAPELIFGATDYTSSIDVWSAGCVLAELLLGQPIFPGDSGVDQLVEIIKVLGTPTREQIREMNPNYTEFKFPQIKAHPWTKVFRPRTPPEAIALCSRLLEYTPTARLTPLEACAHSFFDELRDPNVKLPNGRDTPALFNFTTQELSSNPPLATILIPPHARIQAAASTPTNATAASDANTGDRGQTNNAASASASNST

[4] = target: T4, PRKD3 (Homo sapiens, UniProt O94806)
T4 construct: purchased Eurofins DiscoverX KINOMEscan
T4 sequence (O94806 1-890): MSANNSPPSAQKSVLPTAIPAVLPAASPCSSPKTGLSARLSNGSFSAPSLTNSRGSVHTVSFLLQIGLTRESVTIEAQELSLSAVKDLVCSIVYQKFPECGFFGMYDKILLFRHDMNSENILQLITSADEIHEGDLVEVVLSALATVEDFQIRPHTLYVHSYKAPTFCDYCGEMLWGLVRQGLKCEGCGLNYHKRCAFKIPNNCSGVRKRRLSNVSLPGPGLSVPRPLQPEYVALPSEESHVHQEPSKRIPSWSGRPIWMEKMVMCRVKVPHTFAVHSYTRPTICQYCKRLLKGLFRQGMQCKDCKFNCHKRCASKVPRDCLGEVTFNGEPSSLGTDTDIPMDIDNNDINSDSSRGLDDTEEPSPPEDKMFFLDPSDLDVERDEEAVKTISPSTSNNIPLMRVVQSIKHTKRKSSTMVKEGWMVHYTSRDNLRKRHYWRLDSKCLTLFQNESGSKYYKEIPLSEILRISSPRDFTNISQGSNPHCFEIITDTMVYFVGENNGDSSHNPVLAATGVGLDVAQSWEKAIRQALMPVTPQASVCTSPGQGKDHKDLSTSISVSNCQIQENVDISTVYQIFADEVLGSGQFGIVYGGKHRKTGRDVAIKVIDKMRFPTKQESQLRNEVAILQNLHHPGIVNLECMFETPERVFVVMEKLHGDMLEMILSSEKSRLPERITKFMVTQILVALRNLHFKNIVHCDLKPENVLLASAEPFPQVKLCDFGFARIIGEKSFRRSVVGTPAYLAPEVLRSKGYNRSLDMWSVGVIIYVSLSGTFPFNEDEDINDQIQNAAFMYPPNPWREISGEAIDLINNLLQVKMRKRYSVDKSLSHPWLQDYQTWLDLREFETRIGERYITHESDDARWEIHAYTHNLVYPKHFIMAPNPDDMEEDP

[5] = target: T5, MST2 (Homo sapiens, UniProt Q13188)
T5 construct: purchased Eurofins DiscoverX KINOMEscan
T5 sequence (Q13188 1-491): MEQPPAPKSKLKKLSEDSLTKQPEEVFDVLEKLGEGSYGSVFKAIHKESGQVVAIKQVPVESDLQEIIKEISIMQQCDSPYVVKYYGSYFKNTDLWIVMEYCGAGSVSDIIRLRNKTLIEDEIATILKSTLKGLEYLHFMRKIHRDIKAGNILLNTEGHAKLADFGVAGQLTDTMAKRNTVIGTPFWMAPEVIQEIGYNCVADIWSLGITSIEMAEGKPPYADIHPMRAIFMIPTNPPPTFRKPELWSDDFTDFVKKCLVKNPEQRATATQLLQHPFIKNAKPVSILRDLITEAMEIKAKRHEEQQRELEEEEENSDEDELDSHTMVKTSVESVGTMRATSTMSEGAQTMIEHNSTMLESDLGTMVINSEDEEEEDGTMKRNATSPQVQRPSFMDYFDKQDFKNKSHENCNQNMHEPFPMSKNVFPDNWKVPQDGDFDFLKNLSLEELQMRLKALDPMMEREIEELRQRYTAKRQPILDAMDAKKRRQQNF

[6] = target: T6, KIT(L576P) (Homo sapiens, UniProt P10721, L576P)
T6 construct: purchased Eurofins DiscoverX KINOMEscan
T6 sequence (P10721 26-976 L576P): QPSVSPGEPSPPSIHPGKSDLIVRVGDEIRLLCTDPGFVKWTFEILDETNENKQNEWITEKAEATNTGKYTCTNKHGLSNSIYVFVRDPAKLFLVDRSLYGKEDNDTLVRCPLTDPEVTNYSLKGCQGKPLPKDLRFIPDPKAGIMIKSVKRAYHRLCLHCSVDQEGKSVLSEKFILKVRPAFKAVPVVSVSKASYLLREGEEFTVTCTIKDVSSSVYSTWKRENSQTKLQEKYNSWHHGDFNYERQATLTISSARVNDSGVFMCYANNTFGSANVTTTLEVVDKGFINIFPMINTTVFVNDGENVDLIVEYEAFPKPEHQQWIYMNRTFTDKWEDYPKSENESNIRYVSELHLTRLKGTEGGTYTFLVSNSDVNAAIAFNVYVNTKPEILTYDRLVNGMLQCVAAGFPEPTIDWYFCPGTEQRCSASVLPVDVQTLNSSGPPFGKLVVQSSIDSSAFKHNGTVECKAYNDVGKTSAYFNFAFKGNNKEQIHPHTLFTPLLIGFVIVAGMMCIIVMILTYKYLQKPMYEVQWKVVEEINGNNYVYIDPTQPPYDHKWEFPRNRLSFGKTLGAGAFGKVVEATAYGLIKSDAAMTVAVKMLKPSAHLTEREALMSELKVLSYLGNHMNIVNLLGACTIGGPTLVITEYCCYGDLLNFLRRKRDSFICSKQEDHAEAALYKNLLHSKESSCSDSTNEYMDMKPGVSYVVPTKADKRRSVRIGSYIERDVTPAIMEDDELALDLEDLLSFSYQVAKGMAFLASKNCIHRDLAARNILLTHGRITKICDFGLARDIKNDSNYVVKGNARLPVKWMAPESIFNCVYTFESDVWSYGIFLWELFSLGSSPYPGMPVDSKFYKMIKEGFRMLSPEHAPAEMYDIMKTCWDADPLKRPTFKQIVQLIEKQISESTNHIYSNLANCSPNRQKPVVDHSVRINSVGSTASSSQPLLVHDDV

[7] = target: T7, PRKCI (Homo sapiens, UniProt P41743)
T7 construct: purchased Eurofins DiscoverX KINOMEscan
T7 sequence (P41743 1-596): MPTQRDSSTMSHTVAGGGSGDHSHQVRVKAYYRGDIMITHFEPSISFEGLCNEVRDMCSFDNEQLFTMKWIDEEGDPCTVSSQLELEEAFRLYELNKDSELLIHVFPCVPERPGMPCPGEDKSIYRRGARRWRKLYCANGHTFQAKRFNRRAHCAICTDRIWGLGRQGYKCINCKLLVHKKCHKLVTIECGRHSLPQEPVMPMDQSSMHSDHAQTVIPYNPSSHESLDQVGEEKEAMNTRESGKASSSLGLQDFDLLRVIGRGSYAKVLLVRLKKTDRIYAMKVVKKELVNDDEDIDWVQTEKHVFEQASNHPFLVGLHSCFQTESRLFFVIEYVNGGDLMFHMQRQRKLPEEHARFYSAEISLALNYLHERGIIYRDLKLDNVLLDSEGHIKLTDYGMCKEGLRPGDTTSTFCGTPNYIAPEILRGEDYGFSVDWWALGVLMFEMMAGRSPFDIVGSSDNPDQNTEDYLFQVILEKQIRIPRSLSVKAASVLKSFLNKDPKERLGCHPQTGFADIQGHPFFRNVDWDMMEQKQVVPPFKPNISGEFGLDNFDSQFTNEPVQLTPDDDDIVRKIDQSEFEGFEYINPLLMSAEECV

T1 sequence (Q8TDX7 whole entry): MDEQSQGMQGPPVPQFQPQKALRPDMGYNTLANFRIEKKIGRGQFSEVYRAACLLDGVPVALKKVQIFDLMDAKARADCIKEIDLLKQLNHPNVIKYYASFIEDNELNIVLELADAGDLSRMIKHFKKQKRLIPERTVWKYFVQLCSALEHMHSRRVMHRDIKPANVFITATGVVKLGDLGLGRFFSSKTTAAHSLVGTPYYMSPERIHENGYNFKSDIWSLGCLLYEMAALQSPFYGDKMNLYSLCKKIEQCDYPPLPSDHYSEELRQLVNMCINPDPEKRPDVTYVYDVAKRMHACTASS
T2 sequence (P11362 22-822): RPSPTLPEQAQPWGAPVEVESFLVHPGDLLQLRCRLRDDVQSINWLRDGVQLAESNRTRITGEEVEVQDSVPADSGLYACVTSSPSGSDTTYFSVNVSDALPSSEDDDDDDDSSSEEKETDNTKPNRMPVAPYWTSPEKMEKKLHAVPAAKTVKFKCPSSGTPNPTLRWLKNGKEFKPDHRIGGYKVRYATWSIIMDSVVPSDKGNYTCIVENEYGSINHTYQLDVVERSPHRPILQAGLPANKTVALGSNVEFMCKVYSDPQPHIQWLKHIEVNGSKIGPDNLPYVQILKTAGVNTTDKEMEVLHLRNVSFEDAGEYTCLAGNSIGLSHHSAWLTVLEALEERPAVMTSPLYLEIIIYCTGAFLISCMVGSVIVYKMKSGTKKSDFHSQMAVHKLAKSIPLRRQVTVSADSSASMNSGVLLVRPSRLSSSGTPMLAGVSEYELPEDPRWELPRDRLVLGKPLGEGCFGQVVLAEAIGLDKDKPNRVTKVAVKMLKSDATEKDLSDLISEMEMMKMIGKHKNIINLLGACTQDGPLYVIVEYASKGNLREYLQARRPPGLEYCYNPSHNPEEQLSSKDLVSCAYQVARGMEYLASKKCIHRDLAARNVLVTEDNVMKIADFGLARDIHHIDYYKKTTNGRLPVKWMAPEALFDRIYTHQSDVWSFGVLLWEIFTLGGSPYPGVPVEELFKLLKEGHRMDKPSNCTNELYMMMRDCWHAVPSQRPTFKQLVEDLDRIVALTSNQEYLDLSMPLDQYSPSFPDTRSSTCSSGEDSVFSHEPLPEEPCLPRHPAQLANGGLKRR

Row | Compound | remaining binding at 1 µM [1] | remaining binding at 1 µM [2] | remaining binding at 1 µM [3] | remaining binding at 1 µM [4] | remaining binding at 1 µM [5] | remaining binding at 1 µM [6] | remaining binding at 1 µM [7]
1 | Clc1cc(NCC2CC2)c2ncc(-c3ccc4[nH]ncc4c3)n2n1 [compound 2, 6-Chloro-N-(cyclopropylmethyl)-3-(1H-indazol-5-yl)imidazo[1,2-b]pyridazin-8-amine] | 97% | 99% | 99% | 98% | 85% | 1.2% | 88%
2 | O=C(CN1CCOCC1)N[C@H]1CC[C@H](Nc2cc(Cl)nn3c(-c4ccc5[nH]ncc5c4)cnc23)CC1 [compound 26] | 99% | 94% | 92% | 94% | 92% | 0% | 100%
3 | CN1CCC(CNc2cc(Cl)nn3c(-c4cc5nc(Nc6ccccc6)[nH]c5cc4F)cnc23)CC1 [compound 31, 6-Chloro-3-(6-fluoro-2-(phenylamino)-1H-benzo[d]imidazol-5-yl)-N-((1-methylpiperidin-4-yl)methyl)imidazo[1,2-b]pyridazin-8-amine] | 94% | 87% | 96% | 100% | 100% | 61% | 89%
